Laboratory results taken from the C3SDB collision cross section collection.
“And” between values parts separate entries of the source, which are not always exact repeats. Equal values may be shown once. Each block holds one compound with its values, some of them ahead of it.

Assays:
[1] = instrument: TW, calibrated with phosphatidylcholines (ESI+) and phosphatidylethanolamines (ESI-)
[2] = instrument: DT, stepped-field
[3] = instrument: DT, single field, calibrated with Agilent tune mix (Agilent)
[4] = instrument: TW, calibrated with phosphatidylcholines (ESI+) and phosphatidylethanolamines (ESI-); remark: listed apart in the source
[5] = instrument: DT, single field
[6] = instrument: DT, stepped-field; remark: listed apart in the source

collision cross section (N2) ([1]; [M+NH4]+): 295.4 Å²
collision cross section (N2) ([1]; [M+Na]+): 291.7 Å²
SMILES: CCCCCCCCCCCC=CCC(=O)OC[C@H](CO[C@@H]1O[C@H](CO[C@H]2O[C@H](CO)[C@H](O)C(O)C2O)[C@H](O)C(O)C1O)OC(=O)CC=CCCCCCCCCCCC (stereo not given in full) [DGDG(30:2)]

collision cross section (N2) ([1]; [M+NH4]+): 308.5 Å²
collision cross section (N2) ([1]; [M+Na]+): 306.7 Å²
SMILES: CCCCCCCCCCCCCCCC(=O)OC[C@H](CO[C@@H]1O[C@H](CO[C@H]2O[C@H](CO)[C@H](O)C(O)C2O)[C@H](O)C(O)C1O)OC(=O)CCCCCCCCCCCCCCC (stereo not given in full) [DGDG(32:0)]

collision cross section (N2) ([1]; M+NH4]+): 317.4 Å²
SMILES: CCCCCCCCCCCCC=CCC=CCC(=O)OC[C@H](CO[C@@H]1O[C@H](CO[C@H]2O[C@H](CO)[C@H](O)C(O)C2O)[C@H](O)C(O)C1O)OC(=O)CC=CCCCCCCCCCCCCCC (stereo not given in full) [DGDG(35:1)]

collision cross section (N2) ([1]; [M+NH4]+): 326.8 Å²
SMILES: CCCCCCCCCCCCCCCCCC(=O)OC[C@H](CO[C@@H]1O[C@H](CO[C@H]2O[C@H](CO)[C@H](O)C(O)C2O)[C@H](O)C(O)C1O)OC(=O)CCCCCCCCCCCCCCCCC (stereo not given in full) [DGDG(36:0)]

collision cross section (N2) ([2]; [M-H]-): 201.1 Å²
collision cross section (N2) ([3]; [M-H]-): 203.8 Å²
SMILES: CCCCCC/C=C\CCCCCCCC(=O)OC[C@@H](O)COP(=O)(O)OCCN [LPE(16:1)]

collision cross section (N2) ([2]; [M-H]-): 210.1 Å²
collision cross section (N2) ([4]; [M+H]+): 214.2 Å²
collision cross section (N2) ([4]; [M+Na]+): 219 Å²
collision cross section (N2) ([4]; [M-H]-): 210.2 Å²
collision cross section (N2) ([3]; [M+H]+): 215.8 Å²
collision cross section (N2) ([3]; [M+Na]+): 222.1 Å²
collision cross section (N2) ([3]; [M-H]-): 211.3 Å²
SMILES: CCCCCC/C=C\CCCCCCCCCC(=O)O[C@H](CO)COP(=O)(O)OCCN [LPE(18:1)]

collision cross section (N2) ([2]; [M-H]-): 228.7 Å²
collision cross section (N2) ([3]; [M-H]-): 229.1 Å²
SMILES: CCCCCCCCCCCCCCCC(=O)OC[C@@H](O)COP(=O)(O)O[C@H]1C(O)C(O)C(O)[C@@H](O)C1O (stereo not given in full) [LPI(16:0)]

collision cross section (N2) ([1]; [M+H]+): 287.8 Å²
SMILES: CCCCCCCCCCCCCCC(=O)OCC(COP(=O)([O-])OCC(O)COC(=O)C(N)CCCC[NH3+])OC(=O)CCCCCCCCCCCCC (stereo not given) [LysPG(29:0)]

collision cross section (N2) ([1]; [M+H]+): 298.4 Å²
SMILES: CCCCCC/C=C\CCCCCCCCCC(=O)OCC(COP(=O)([O-])OCC(O)COC(=O)C(N)CCCC[NH3+])OC(=O)CCCCCCC/C=C\CCCCCC (stereo not given) [LysPG(34:2)]

collision cross section (N2) ([1]; [M+H]+): 305.4 Å²
SMILES: CCCCCCCCCCCCCCCCCCCC(=O)OC(COC(=O)CCCCCCCCCCCCCC)COP(=O)([O-])OCC(O)COC(=O)C(N)CCCC[NH3+] (stereo not given) [LysPG(35:0)]

collision cross section (N2) ([2]; [M+H]+): 301.1 Å²
collision cross section (N2) ([4]; [M+H]+): 285.8 Å²
collision cross section (N2) ([3]; [M+H]+): 289.7 Å²
collision cross section (N2) ([5]; [M+H]+): 289.07 Å² and 290.41 Å²
collision cross section (N2) ([5]; [M+Na]+): 288.39 Å²
SMILES: CCCCCCCCCCCCCCCCCCCCC(=O)O[C@H](COC(=O)CCCCCCCCCCCC)COP(=O)([O-])OCC[N+](C)(C)C [PC(34:0)]

collision cross section (N2) ([2]; [M+H]+): 300.3 Å²
collision cross section (N2) ([4]; [M+CH3COO]-): 289.1 Å²
collision cross section (N2) ([4]; [M+H]+): 285.3 Å²
collision cross section (N2) ([3]; [M+H]+): 287.1 Å²
collision cross section (N2) ([5]; [M+H]+): 285.62 Å² and 287.54 Å²
SMILES: CCCCCC/C=C\CCCCCCCCCC(=O)OC[C@H](COP(=O)([O-])OCC[N+](C)(C)C)OC(=O)CCCCCCCCCCCCCCC [PC(34:1)]

collision cross section (N2) ([2]; [M+H]+): 292.3 Å²
collision cross section (N2) ([4]; [M+H]+): 278.8 Å²
collision cross section (N2) ([6]; [M+K]+): 292.4 Å²
collision cross section (N2) ([3]; [M+HCOO]-): 283.5 Å²
collision cross section (N2) ([3]; [M+H]+): 281.8 Å²
SMILES: CCCCCCCC/C=C\C/C=C\C/C=C\CCCC(=O)OC[C@H](COP(=O)([O-])OCC[N+](C)(C)C)OC(=O)CCCCCCCCCCCCC [PC(34:3)]

collision cross section (N2) ([2]; [M+H]+): 293.8 Å²
SMILES: CC/C=C\C/C=C\C/C=C\C/C=C\C/C=C\CCCC(=O)O[C@H](COCCCCCCCCCCCCCCCC)COP(=O)([O-])OCC[N+](C)(C)C [PC(o36:5)]

collision cross section (N2) ([2]; [M+H]+): 283.8 Å²
SMILES: CCCCC/C=C\C/C=C\CCCCCCCC(=O)O[C@H](COC(=O)CCCCCCCCCCCCCCC)COP(=O)(O)OCCN [PE(16:1/18:1)]

collision cross section (N2) ([2]; [M+H]+): 293 Å²
collision cross section (N2) ([2]; [M-H]-): 276 Å² and 275.9 Å²
collision cross section (N2) ([4]; [M+H]+): 275.7 Å²
collision cross section (N2) ([4]; [M-H]-): 267.4 Å²
collision cross section (N2) ([6]; [M+Na]+): 285.7 Å²
collision cross section (N2) ([3]; [M+H]+): 279.3 Å²
collision cross section (N2) ([3]; [M+Na]+): 284.6 Å²
collision cross section (N2) ([3]; [M-H]-): 268.5 Å²
SMILES: CCCCC/C=C\C/C=C\CCCCCCCCCC(=O)O[C@H](COC(=O)CCCCCCCCCCCCCCC)COP(=O)(O)OCCN [PE(36:2)]

collision cross section (N2) ([2]; [M-H]-): 278.4 Å² and 277.4 Å²
collision cross section (N2) ([4]; [M+H]+): 280.4 Å²
collision cross section (N2) ([4]; [M-H]-): 271.1 Å²
collision cross section (N2) ([6]; [M+Na]+): 290 Å²
collision cross section (N2) ([3]; [M+H]+): 282.9 Å²
SMILES: CCCCC/C=C\C/C=C\CCCCCCCCCC(=O)O[C@H](COC(=O)CCCCCCC/C=C\C/C=C\CCCCC)COP(=O)(O)OCCN [PE(38:4)]
